Measurements: PubChem BioAssay (NCI)
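Cultured in 96-well plates, cells were exposed to test compound for 48 hours across five concentrations. Definition used: TGI = concentration required for complete inhibition of growth.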

Assays:
Experiment in all cases: growth of human tumour cells (NCI), 48 h
[1] = tested on: M14 melanoma
[2] = tested on: SW-620 colon
[3] = tested on: NCI-H226 lung
[4] = tested on: OVCAR-4 ovarian
[5] = tested on: T-47D breast
[6] = tested on: UACC-257 melanoma
[7] = tested on: HT29 colon
[8] = tested on: BT-549 breast
[9] = tested on: NCI-H460 lung
[10] = tested on: SK-MEL-28 melanoma
[11] = tested on: HCC-2998 colon
[12] = tested on: UACC-62 melanoma
[13] = tested on: MDA-N
[14] = tested on: HOP-62 NSCLC
[15] = tested on: SK-OV-3 ovarian
[16] = tested on: RPMI-8226 leukemia
[17] = tested on: CAKI-1 renal
[18] = tested on: A549 NSCLC
[19] = tested on: SNB-75 CNS
[20] = tested on: LOX IMVI melanoma
[21] = tested on: SR leukemia
[22] = tested on: ACHN renal
[23] = tested on: PC-3 prostate
[24] = tested on: IGROV1 ovarian
[25] = tested on: HS 578T breast
[26] = tested on: RXF 393 renal
[27] = tested on: SNB-19 CNS
[28] = tested on: MOLT-4 leukemia
[29] = tested on: NCI-H23 lung
[30] = tested on: NCI-H522 lung
[31] = tested on: OVCAR-8 ovarian
[32] = tested on: TK-10 renal
[33] = tested on: COLO 205 colon
[34] = tested on: MDA-MB-435
[35] = tested on: SK-MEL-5 melanoma
[36] = tested on: SF-295 CNS
[37] = tested on: SF-268 CNS
[38] = tested on: HOP-92 NSCLC
[39] = tested on: HL-60(TB) leukemia
[40] = tested on: EKVX NSCLC
[41] = tested on: UO-31 renal
[42] = tested on: SN12C renal
[43] = tested on: HCT-15 colon
[44] = tested on: 786-0 renal
[45] = tested on: K-562 leukemia
[46] = tested on: MDA-MB-231 breast
[47] = tested on: MCF7 breast
[48] = tested on: DU-145 prostate
[49] = tested on: SF-539 CNS
[50] = tested on: NCI/ADR-RES ovarian
[51] = tested on: CCRF-CEM leukemia
[52] = tested on: MALME-3M melanoma
[53] = tested on: HCT-116 colon
[54] = tested on: KM12 colon
[55] = tested on: A498 renal
[56] = tested on: U251 CNS
[57] = tested on: SK-MEL-2 melanoma
[58] = tested on: OVCAR-5 ovarian
[59] = tested on: OVCAR-3 ovarian

Measured: TGI

Clc1cccc(-c2sc(-c3cccs3)cc2Cc2cccs2)c1
not listed: [55] | [56] | [57] | [58] | [59]
> 10 µM: all other assays above

[N-]=[N+]=CC(=O)C1CCCN1C(=O)c1ccccc1 (configuration not stated)
8.26 µM: [19]
not listed: [30]
> 10 µM: all other assays above
